Consider one molecule from patent US10745389B2, “HDAC6 selective inhibitors, preparation method therefor, and application thereof” (CSTONE PHARMACEUTICALS (SUZHOU) CO., LTD., priority 2017, dated 2020).

For this assay, the system named is human myeloma MM.1S cells subcutaneous xenograft tumor. The experiment in a line: In vivo pharmacodynamic study with Ixazomib, MM.1S subcutaneous xenograft in CB-17 SCID model. Set-up: species or system CB-17 SCID mouse. Particulars: Ixazomib 4 mg/kg administered alone, 21st day. The method, then:
The purpose of this experiment was to investigate the in vivo therapeutic effect of the compounds of the present invention in combination with proteasome inhibitor Ixazomib on human myeloma MM.1S cell subcutaneous xenografts in the CB-17 SCID model.
Human myeloma MM. S cells were cultured in vitro in a single layer, culture environment was RPMI-1640 medium (supplier: Gibco; Cat. No. 22400-089) supplemented with 10% fetal bovine serum, 37° C. 5% CO2 incubator. Then passage was done by routinely digested with trypsin-EDTA twice a week. When the cell saturation rate reached 80%-90%, the cells were collected, counted, and inoculated.
0.2 mL of 5×10^6 MM.1S cells were subcutaneously inoculated into the right back of each mouse (Beijing Weitong Lihua Biotechnology Co., Ltd., female, 6-8 weeks old) (PBS: Matrigel=1:1)). Administration by groups was initiated when the average tumor volume reached 100-150 mm^3.
Animals were monitored daily for health and mortality, routine tests includes observations of tumor growth and drug treatment effects on animal performance, such as behavioral activities, food intake (visual inspection only), weight change (measured every other day), appearance signs or other abnormal conditions. The number of animal deaths and side effects in the group were recorded based on the number of animals in each group.
The experimental index is to investigate whether tumor growth is inhibited, delayed or cured. Tumor diameters were measured with vernier calipers three times a week. The tumor volume is calculated by: V=0.5a×b^2, where a and b represent the long and short diameters of the tumor, respectively.
The antitumor effect of the compound was evaluated by TGI (%) or relative tumor growth rate T/C (%). TGI (%), reflecting the tumor growth inhibition rate. […]

As a reminder, the T/C is the result in the treated group divided by that in the control group, in per cent. One may read the TGI as how far tumour growth fell short of that in controls. In the case of `CC(C)C[C@H](NC(=O)CNC(=O)c1cc(Cl)ccc1Cl)B(O)O` [Ixazomib], the tumor volume is given as 916 mm^3. In addition, under “vs solvent control”, the T/C was 34.97% and the inhibition of tumour growth (TGI) came to 68.65%.
